Consider six molecules from patent US10487093B2, “Heterocyclic compounds, in particular 2-oxo-4,4,5,5,6,6,7,7-octahydrobenzoxazole derivatives, and their use as antibacterial compounds” (priority 2016, dated 2019).

≈ marks a conversion by molar mass, not a printed value. A value given as a limit tells only on which side of the number the result lay.

Experiment [1] deals with Streptococcus pneumoniae ATCC 49619. Put plainly: MIC, broth microdilution (CLSI) versus planktonic bacteria. Format: cell-based. Particulars: ATCC49619; Streptococcus pneumoniae ATCC 49619; 16-20 h; mode of three independent experiments; read-out: MIC, Sp ATCC 49619.
The subject of experiment [2] is human hepatic cell line (HepG2 ATCC HB-8065). The experiment is described as follows: Human cell viability assay (CellTiter-Glo). Particulars: Homo sapiens, HepG2, 24 h, read-out: IC50 (μg/mL) HepG2.
Experiment [3] deals with E. coli MG1655 S83L. The class given is cell-based, Escherichia coli. The note with it: compared to the isogenic parent strain E. coli MG1655; S83L mutation on DNA gyrase subunit GyrA.
Experiment [4] relates to E. coli MG1655. The experiment is described as follows: MIC, broth microdilution (CLSI) versus planktonic bacteria. The class given is cell-based, Escherichia coli. The note with it: Escherichia coli, MG1655, read-out: MIC, Ec MG1655 WT.
The test system of experiment [5] is Neisseria meningitidis ATCC 13090. The experiment is described as above. Particulars: ATCC13090, 16-20 h, mode of three independent experiments. Format: cell-based.
The test system of experiment [6] is Mycobacterium smegmatis ATCC 19420. The experiment is described as above. The note with it: Mycolicibacterium smegmatis, ATCC19420, 16-20 h, mode of three independent experiments, read-out: MIC, Ms ATCC 19420. The class given is cell-based.
Experiment [7] has as its system E. coli NCTC 13476. Described as above. The note with it: NCTC13476; Escherichia coli NCTC 13476; 16-20 h; mode of three independent experiments; read-out: MIC, Ec NCTC 13476. The class given is cell-based.
The subject of experiment [8] is Haemophilus influenzae ATCC 49247. The experiment is described as above. The class given is cell-based. Particulars: ATCC49247; Haemophilus influenzae ATCC 49247; 16-20 h; mode of three independent experiments; read-out: MIC, Hi ATCC 49247.
Experiment [9] deals with Staphylococcus aureus ATCC 29213. Described as above. The class given is cell-based. Particulars: ATCC29213; Staphylococcus aureus ATCC 29213; 16-20 h; mode of three independent experiments; read-out: MIC, Sa ATCC 29213.
Experiment [10] deals with Enterobacter cloacae NCTC 13406. The experiment is described as above. The class given is cell-based. The note with it: NCTC13406; Enterobacter cloacae NCTC 13406; 16-20 h; mode of three independent experiments; read-out: MIC, Ecl NCTC 13406.
For experiment [11], the system named is Acinetobacter baumannii ATCC 19606. The experiment is described as above. Format: cell-based. The note with it: ATCC19606; Acinetobacter baumannii ATCC 19606; 16-20 h; mode of three independent experiments; read-out: MIC, Ab ATCC 19606.
Experiment [12] has as its system Acinetobacter baumannii NCTC 13420. Described as above. Format: cell-based. Particulars: NCTC13420; Acinetobacter baumannii NCTC 13420; 16-20 h; mode of three independent experiments; read-out: MIC, Ab NCTC 13420.
Experiment [13] deals with Pseudomonas aeruginosa ATCC 27853. The description is as above. The class given is cell-based. Particulars: ATCC27853; Pseudomonas aeruginosa ATCC 27853; 16-20 h; mode of three independent experiments; read-out: MIC, Pa ATCC 27853.
For experiment [14], the system named is E. coli MG1655 D87G. Format: cell-based, Escherichia coli. Particulars: compared to the isogenic parent strain E. coli MG1655; D87G mutation on DNA gyrase subunit GyrA.
In experiment [15] the test system is Escherichia coli ATCC 25922. Put plainly: MIC, broth microdilution (CLSI) versus planktonic bacteria. Particulars: ATCC25922; Escherichia coli ATCC 25922; 16-20 h; mode of three independent experiments; read-out: MIC, Ec ATCC 25922. The class given is cell-based.
For experiment [16], the system named is E. coli ATCC BAA-2452. Described as above. Format: cell-based. The note with it: Escherichia coli ATCC BAA-2452; 16-20 h; mode of three independent experiments; read-out: MIC, Ec ATCC BAA 2452.

As for `COc1ccc2ccc(=O)n(CCN[C@H]3CC[C@H]4[C@@H](C3)OC(=O)N4c3ccc4c(n3)NC(=O)CO4)c2n1` [Compound 4, 1-(2-{[(3aS,6S,7aR)-2-oxo-3-{3-oxo-2H,3H,4H-pyrido[3,2-b][1,4]oxazin-6-yl}-octahydro-1,3-benzoxazol-6-yl]amino}ethyl)-7-methoxy-1,2-dihydro-1,8-naphthyridin-2-one], the MIC in experiment [1] is under 1 µg/mL; in [4], under 1 µg/mL; in experiment [5], under 1 µg/mL; in [6], under 1 µg/mL; in [7], under 1 µg/mL; in experiment [8], 1 to 10 µg/mL (≈ 1.97 to 19.7 µM). The MIC in experiment [9] is under 1 µg/mL; in experiment [10] it was under 1 µg/mL; in [11], under 1 µg/mL; in experiment [12] it was under 1 µg/mL; in [13] it was 1 to 10 µg/mL (≈ 1.97 to 19.7 µM); in experiment [15], under 1 µg/mL. Besides, the MIC in experiment [16] was under 1 µg/mL. The IC50 in experiment [2] fell in the range of 10 to 100 µg/mL (≈ 19.7 to 197 µM). For the same molecule, in experiment [3], the “Fold increase in MIC, E. coli MG1655 S83L” value stood at 1 fold. Further, the “Fold increase in MIC, E. coli MG1655 D87G” value in experiment [14] stood at 1 fold.

Turning to `NS(=O)(=O)c1ccc(Oc2ccc3ccc(=O)n(CCN[C@@H]4CC[C@@H]5[C@@H](C4)OC(=O)N5c4ccc5c(n4)NC(=O)CO5)c3n2)cc1` [Compound 8, 4-{[8-(2-{[(3aR,6R,7aR)-2-oxo-3-{3-oxo-2H,3H,4H-pyrido[3,2-b][1,4]oxazin-6-yl}-octahydro-1,3-benzoxazol-6-yl]amino}ethyl)-7-oxo-7,8-dihydro-1,8-naphthyridin-2-yl]oxy}benzene-1-sulphonamide], the MIC in experiment [1] was 1 to 10 µg/mL (≈ 1.54 to 15.4 µM); in experiment [6] it was under 1 µg/mL; in experiment [8], under 1 µg/mL; in experiment [9], under 1 µg/mL; in [10], 10 to 100 µg/mL (≈ 15.4 to 154 µM); in [12], 10 to 100 µg/mL (≈ 15.4 to 154 µM). For the same molecule, the MIC in [13] fell in the range of 10 to 100 µg/mL (≈ 15.4 to 154 µM); in experiment [15] it was 1 to 10 µg/mL (≈ 1.54 to 15.4 µM). Besides, the IC50 in experiment [2] lay in the range of 10 to 100 µg/mL (≈ 15.4 to 154 µM).

With `NCCOc1ccc2ccc(=O)n(CCN[C@H]3CC[C@H]4[C@@H](C3)OC(=O)N4c3ccc4c(n3)NC(=O)CO4)c2c1` [Compound 9, 1-(2-{[(3aS,6S,7aR)-2-oxo-3-{3-oxo-2H,3H,4H-pyrido[3,2-b][1,4]oxazin-6-yl}-octahydro-1,3-benzoxazol-6-yl]amino}ethyl)-7-(2-aminoethoxy)-1,2-dihydroquinolin-2-one], the MIC in experiment [1] was 10 to 100 µg/mL (≈ 18.7 to 187 µM); in [6] it was over 100 µg/mL; in experiment [8], 10 to 100 µg/mL (≈ 18.7 to 187 µM); in experiment [9] it was 1 to 10 µg/mL (≈ 1.87 to 18.7 µM); in [10], over 100 µg/mL; in [12] it was over 100 µg/mL. The MIC in experiment [13] and in experiment [15] was 1 to 10 µg/mL (≈ 1.87 to 18.7 µM) each time. In experiment [2], the IC50 is over 100 µg/mL.

As to `NCCOc1ccc2ccc(=O)n(CCN[C@H]3CC[C@H]4[C@@H](C3)OC(=O)N4c3ccc4c(n3)NC(=O)CO4)c2n1` [Compound 10, 1-(2-{[(3aS,6S,7aR)-2-oxo-3-{3-oxo-2H,3H,4H-pyrido[3,2-b][1,4]oxazin-6-yl}-octahydro-1,3-benzoxazol-6-yl]amino}ethyl)-7-(2-aminoethoxy)-1,2-dihydro-1,8-naphthyridin-2-one], the MIC in experiment [1] was 10 to 100 µg/mL (≈ 18.7 to 187 µM); in experiment [6], over 100 µg/mL; in experiment [8], 10 to 100 µg/mL (≈ 18.7 to 187 µM); in experiment [9], 10 to 100 µg/mL (≈ 18.7 to 187 µM); in experiment [10], over 100 µg/mL; in experiment [12] it was over 100 µg/mL. Besides, the MIC in experiment [13] and in experiment [15] was 1 to 10 µg/mL (≈ 1.87 to 18.7 µM) throughout. Also, the IC50 in experiment [2] was over 100 µg/mL.

Regarding `N#Cc1cccc(-c2cccc(CN[C@H]3CC[C@H]4[C@@H](C3)OC(=O)N4c3ccc4c(n3)NC(=O)CO4)c2O)n1` [Compound 18, 6-[3-({[(3aS,6S,7aR)-2-oxo-3-{3-oxo-2H,3H,4H-pyrido[3,2-b][1,4]oxazin-6-yl}-octahydro-1,3-benzoxazol-6-yl]amino}methyl)-2-hydroxyphenyl]pyridine-2-carbonitrile], the MIC in experiment [1] is under 1 µg/mL; in experiment [4], under 1 µg/mL; in [5] it was under 1 µg/mL; in experiment [7], 1 to 10 µg/mL (≈ 1.95 to 19.5 µM); in experiment [8] it was 1 to 10 µg/mL (≈ 1.95 to 19.5 µM); in experiment [9] it was under 1 µg/mL. Moreover, the MIC in experiment [10] is under 1 µg/mL; in experiment [11], under 1 µg/mL; in [12] it was under 1 µg/mL; in experiment [13], 1 to 10 µg/mL (≈ 1.95 to 19.5 µM); in experiment [15], under 1 µg/mL; in experiment [16], 1 to 10 µg/mL (≈ 1.95 to 19.5 µM). Further, the IC50 in experiment [2] was in the range of 1 to 10 µg/mL (≈ 1.95 to 19.5 µM). Further, the “Fold increase in MIC, E. coli MG1655 S83L” value in experiment [3] came out at 2 fold. In experiment [14], the “Fold increase in MIC, E. coli MG1655 D87G” value came out at 1 fold.

On to `N#Cc1ccc2ccc(=O)n(CCN(CCN)[C@H]3CC[C@H]4[C@@H](C3)OC(=O)N4c3ccc4c(n3)NC(=O)CO4)c2c1` [Compound 58, 1-(2-{[(3aS,6S,7aR)-2-oxo-3-{3-oxo-2H,3H,4H-pyrido[3,2-b][1,4]oxazin-6-yl}-octahydro-1,3-benzoxazol-6-yl](2-aminoethyl)amino}ethyl)-2-oxo-1,2-dihydroquinoline-7-carbonitrile], for which the MIC in [1] is over 100 µg/mL; in [6], 1 to 10 µg/mL (≈ 1.84 to 18.4 µM); in experiment [8], over 100 µg/mL; in [9], under 1 µg/mL; in experiment [10], over 100 µg/mL; in experiment [12] it was over 100 µg/mL. For the same molecule, the MIC in [13] is 1 to 10 µg/mL (≈ 1.84 to 18.4 µM); in experiment [15], 10 to 100 µg/mL (≈ 18.4 to 184 µM). Besides, the IC50 in experiment [2] was over 100 µg/mL.
